# In publication PMC7869652 (Invertebrate neuroscience : IN, 2019):
# Read-outs that look alike come from different tables or passages of the source.
# Assays:
# Type in all cases: cell-based
# Aca-ACR-16 [1] = molecular target: T1, Aca-ACR-16 (Ancylostoma caninum, UniProt A0A5C1L5J1); assay: two-electrode voltage clamp, Xenopus oocytes, inhibition of ACh current; details: read-out: % inhibition at 10 μM
# T1 sequence (A0A5C1L5J1 21-497): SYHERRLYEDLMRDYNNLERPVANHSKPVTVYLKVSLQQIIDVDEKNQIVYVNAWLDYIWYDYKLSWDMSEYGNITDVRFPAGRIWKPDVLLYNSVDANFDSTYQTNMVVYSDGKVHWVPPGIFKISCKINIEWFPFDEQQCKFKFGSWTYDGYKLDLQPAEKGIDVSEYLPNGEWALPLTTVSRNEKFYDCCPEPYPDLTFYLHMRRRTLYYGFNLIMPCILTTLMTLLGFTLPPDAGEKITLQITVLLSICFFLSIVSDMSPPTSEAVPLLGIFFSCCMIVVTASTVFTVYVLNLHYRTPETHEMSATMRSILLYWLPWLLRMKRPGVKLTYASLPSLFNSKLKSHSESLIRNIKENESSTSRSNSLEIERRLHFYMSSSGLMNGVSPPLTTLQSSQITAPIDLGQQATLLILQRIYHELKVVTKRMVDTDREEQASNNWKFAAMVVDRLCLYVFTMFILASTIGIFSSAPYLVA
# Aca-ACR-16 [2] = molecular target: T1, Aca-ACR-16; assay: as above; details: read-out: % inhibition at 10 μM; remark: listed apart in the source
# Aca-ACR-16 [3] = molecular target: T1, Aca-ACR-16; assay: two-electrode voltage clamp, Xenopus oocytes, peak current
# Aca-ACR-16 [4] = molecular target: T1, Aca-ACR-16; assay: as above; details: agonist; 10 s application; co-expressed with Asu-RIC-3
smiles,measurement,setting,value
COc1cc2c3cc1Oc1cc(ccc1O)C[C@@H]1c4c(cc(OC)c(O)c4Oc4ccc(cc4)C[C@@H]3N(C)CC2)CC[N+]1(C)C [d-tubocurarine],inhibition at 10 µM,Aca-ACR-16 [1],100 ± 0.1%
CO[C@H]1CC=C2CCN3CCC4=C(CC(=O)OC4)[C@]23C1 [dihydro-β-erythroidine],inhibition at 10 µM,Aca-ACR-16 [2],98.8 ± 0.4%
CC(=O)OCC[N+](C)(C)C [acetylcholine],EC50,Aca-ACR-16 [3],50 µM
Clc1ccc(C2CC3CCC2N3)cn1 (stereo not drawn) [epibatidine],% of 100 μM ACh current at 100 μM,Aca-ACR-16 [4],85.0 ± 4.0%
CN1C(=O)[C@]23C[C@H]4C(C)(C)[C@]5(CNc6c5ccc5c6OC=CC(C)(C)O5)C[C@@]41CN2CC[C@@]3(C)O [derquantel],inhibition at 10 µM,Aca-ACR-16 [1],72 ± 5.6%
CNC1(C)C2CCC(C2)C1(C)C (stereo not drawn) [mecamylamine],inhibition at 10 µM,Aca-ACR-16 [1],98.8 ± 0.6%
